Values after ≈ are worked out from the molar mass of the structure shown.
Assay: Toxicity in brine shrimp after 24 hrs
Type: organism-based
Settings: artemia, in vivo; read-out: LD50

## COc1cc([C@@H]2c3cc4c(cc3[C@H](O)[C@H]3COC(=O)[C@H]23)OCO4)cc(OC)c1OC [PODOFILOX]
  LC50 at 24 h: 2 µg/mL (≈ 4.83 µM)

— ChEMBL document CHEMBL1158030, “Endophyte fungal isolates from Podophyllum peltatum produce podophyllotoxin” (J Nat Prod, 2006)
